Laboratory results from patent US8609362B2, “G-proteins” (Givaudan SA, priority 2002, dated 2013).
Where two headings read alike, the source gives them in different places. Residues, ends and D or L forms follow the SMILES beside them.

Tests used:
[1] = test system: sham transfected (control); assay: Fluo-4 calcium assay, sham transfected control cells of Table 2; type: cell-based
Description: (§1) At day 0, cells stably expressing the G-protein are plated in black, clear-bottom 96-well plate at 20,000 cells per well and grown overnight in selective growth media. On day 1, the media is changed to an antibiotic-free growth media and the cells are transfected using 300 ng GPCR DNA and 0.6 μl of Lipofectamine 2000 (Invitrogen). The cells are grown overnight and processed the next day using the Fluo-4 calcium assay conditions described in Example 2 above.
(§2) Following the methodology as described in Example 5 the following results were obtained: […]

[2] = target: T1, mouse T2R5 (Mus musculus, UniProt Q9JKT4); assay: Fluo-4 calcium assay, cells transfected with mouse bitter receptor T2R5 and expressing a promiscuous G-protein; type: cell-based; settings: for increase in mean fluorescence over baseline following ligand addition: ligand 10 μM
T1 construct: expressed in transfected cells; host or cells: HEK293T cells stably expressing Gα16gustducin44 or Gα16
T1 sequence (Q9JKT4 1-300): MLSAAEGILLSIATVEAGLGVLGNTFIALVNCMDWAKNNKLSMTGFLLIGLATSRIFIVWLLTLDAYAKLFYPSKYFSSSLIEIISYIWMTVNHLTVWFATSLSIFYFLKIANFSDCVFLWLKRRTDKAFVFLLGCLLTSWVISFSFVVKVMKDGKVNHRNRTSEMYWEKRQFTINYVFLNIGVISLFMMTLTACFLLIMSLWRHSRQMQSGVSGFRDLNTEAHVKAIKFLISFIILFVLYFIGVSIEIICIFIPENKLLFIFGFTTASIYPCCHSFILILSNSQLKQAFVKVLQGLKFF
Description: as §1, §2

[3] = target: T2, human TAS2R16 (Homo sapiens, UniProt Q9NYV7); assay: Fluo-4 calcium assay, cells transiently transfected with human TAS2R16 and expressing a promiscuous G-protein; type: cell-based; settings: ligand 5 mM; for fluorescent signal with Gα16-gustducin 44, times stronger than reference chimeric G-protein Gα16-z44 / fluorescent signal with Gα16-gustducin 44, times stronger than wild-type Gα16: HEK293T cells, Flexstation; for fluorescent signal with Gα16-gustducin 44, times stronger than reference chimeric G-protein Gα16-z44 / fluorescent signal with Gα16-gustducin 44, times stronger than wild-type Gα16 / fluorescent signal (in words): TAS2R16; for increase in mean fluorescence over baseline following ligand addition: human TAS2R16
T2 construct: expressed in transfected cells; host or cells: HEK293T cells stably expressing Gα16gustducin44, Gα16 or Gα16z44
T2 sequence (Q9NYV7 1-291): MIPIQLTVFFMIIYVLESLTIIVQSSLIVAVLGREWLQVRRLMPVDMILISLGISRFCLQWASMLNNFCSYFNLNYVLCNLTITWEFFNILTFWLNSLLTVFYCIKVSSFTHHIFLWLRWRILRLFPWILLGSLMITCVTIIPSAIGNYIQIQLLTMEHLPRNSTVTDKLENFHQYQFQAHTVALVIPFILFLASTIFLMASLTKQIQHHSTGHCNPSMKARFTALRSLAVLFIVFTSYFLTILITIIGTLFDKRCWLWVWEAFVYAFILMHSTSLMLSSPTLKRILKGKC
Description: The protocol is described in “G-protein coupled receptors (Signal Transduction Series)”; Editors: Tatsuya Haga and Gabriel Berstein, 1st ed., 424 pp.CRC Press—Boca Raton, Fla.; September 1999, and may be summarised as follows: • 1. Day 0: 96-well plates are seeded with 20K cells per well and maintained at 37 degrees C. overnight in nutritive growth media. • 2. Day 1: Cells are transfected using 300 ng of GPCR DNA and 0.6 μl of Lipofectamine 2000 (Invitrogen) per well. Transfected cells are and maintained at 37 degrees C. overnight in nutritive growth media. • 3.
as §1

[4] = target: T3, human TAS2R38 (Homo sapiens, UniProt P59533); assay: Fluo-4 calcium assay, tetracycline-inducible cells stably expressing human TAS2R38 and G16gust44; type: cell-based; settings: ligand 250 μM; for fluorescence signal (in words): HEK293 T-Rex cells, TAS2R38, G16-gustducin 44
T3 construct: expressed in transfected cells
T3 sequence (P59533 1-333): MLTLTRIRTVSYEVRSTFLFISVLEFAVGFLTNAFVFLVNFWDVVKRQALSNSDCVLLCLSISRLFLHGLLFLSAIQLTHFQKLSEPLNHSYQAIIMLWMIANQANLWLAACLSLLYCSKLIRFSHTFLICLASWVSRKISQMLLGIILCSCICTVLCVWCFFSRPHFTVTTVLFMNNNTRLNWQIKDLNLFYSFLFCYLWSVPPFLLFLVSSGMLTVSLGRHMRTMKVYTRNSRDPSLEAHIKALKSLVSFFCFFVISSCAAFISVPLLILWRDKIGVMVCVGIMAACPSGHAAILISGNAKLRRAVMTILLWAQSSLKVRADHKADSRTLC
Excerpt: (§3) The following results were obtained:

[5] = test system: G-protein only (control w/o tetracycline); assay: Fluo-4 calcium assay, G-protein only control w/o tetracycline (TAS2R38 cell line); type: cell-based; settings: Gα16gustducin44, ligand 250 μM
Excerpt: as §3

[6] = test system: G-protein only (control w/o tetracycline); settings: Gα16gustducin44, ligand 250 μM
Description: All assays are performed using black, clear-bottom 96-well plates that have been seeded the day before with 20K transfected cells per well and have been maintained at 37 degrees C. overnight in appropriate growth media. At the time of the assay, the growth media is discarded and cells are incubated for 1 hour (at room temperature in the dark) with 75 μl of a calcium assay solution consisting of 1.5 μM Fluo-4 AM (Molecular Probes) and 2.5 mM probenicid (Sigma-Aldrich) dissolved in a Hanks balanced salts solution (HBSS) that has been supplemented with 10 mM Hepes, 200 μM calcium chloride and 0.1% bovine serum albumin, pH 7.4 at 37 degrees C. […] For assay reading, the plate is placed in a fluorescent microplate reader, for example the Flexstation (Molecular Devices), and receptor activation is initiated following addition of 20 μl of a 10× concentrated ligand stock solution. Fluorescence is continuously monitored for 15 seconds prior to ligand addition and for 45-75 seconds after ligand addition. Receptor activation levels are defined as by the two following equations: % Activation=(Maximum fluorescence−baseline fluorescence/baseline fluorescence)*100 or Fluorescence Increase=Maximum Fluorescence—baseline fluorescence, where baseline fluorescence represents the average fluorescence levels prior to ligand addition. […]

[7] = target: T4, human TAS1R2/TAS1R3 (Homo sapiens, UniProt Q7RTX0+Q8TE23); assay: Fluo-4 calcium assay, cells transfected with human sweet receptor TAS1R2/TAS1R3 and expressing a promiscuous G-protein; type: cell-based; settings: for fluorescence signal with Gα16-gustducin 44, times stronger than wild-type Gα16: HEK293T cells; for fluorescence signal with Gα16-gustducin 44, times stronger than wild-type Gα16 / fluorescence signal (in words): ligand 2.5 mM
T4 construct: expressed in transfected cells; host or cells: HEK293T cells stably expressing the G-protein, co-transfected with T1R2 and T1R3 cDNA
T4 sequence (Q8TE23 20-839): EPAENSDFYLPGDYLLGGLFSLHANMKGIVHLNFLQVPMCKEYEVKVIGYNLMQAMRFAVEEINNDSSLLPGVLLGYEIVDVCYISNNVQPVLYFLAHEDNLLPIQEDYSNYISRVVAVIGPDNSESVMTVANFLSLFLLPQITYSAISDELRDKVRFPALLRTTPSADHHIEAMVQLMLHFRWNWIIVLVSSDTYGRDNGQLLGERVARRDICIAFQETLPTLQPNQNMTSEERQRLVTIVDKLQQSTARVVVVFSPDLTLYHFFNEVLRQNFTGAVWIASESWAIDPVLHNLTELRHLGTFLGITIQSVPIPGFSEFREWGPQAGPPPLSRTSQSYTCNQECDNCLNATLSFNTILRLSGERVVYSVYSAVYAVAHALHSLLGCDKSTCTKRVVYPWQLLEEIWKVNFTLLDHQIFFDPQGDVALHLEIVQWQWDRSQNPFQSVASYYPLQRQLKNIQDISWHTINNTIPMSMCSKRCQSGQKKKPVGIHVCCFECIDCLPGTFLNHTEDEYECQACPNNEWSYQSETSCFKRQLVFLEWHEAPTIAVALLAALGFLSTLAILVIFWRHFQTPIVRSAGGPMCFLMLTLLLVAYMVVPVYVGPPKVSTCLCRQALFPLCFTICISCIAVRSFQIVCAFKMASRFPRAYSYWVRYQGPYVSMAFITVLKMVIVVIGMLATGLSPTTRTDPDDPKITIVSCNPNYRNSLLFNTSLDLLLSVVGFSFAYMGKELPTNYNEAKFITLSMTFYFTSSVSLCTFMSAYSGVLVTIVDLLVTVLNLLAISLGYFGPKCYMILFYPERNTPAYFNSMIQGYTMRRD
T4 sequence (Q7RTX0 21-852): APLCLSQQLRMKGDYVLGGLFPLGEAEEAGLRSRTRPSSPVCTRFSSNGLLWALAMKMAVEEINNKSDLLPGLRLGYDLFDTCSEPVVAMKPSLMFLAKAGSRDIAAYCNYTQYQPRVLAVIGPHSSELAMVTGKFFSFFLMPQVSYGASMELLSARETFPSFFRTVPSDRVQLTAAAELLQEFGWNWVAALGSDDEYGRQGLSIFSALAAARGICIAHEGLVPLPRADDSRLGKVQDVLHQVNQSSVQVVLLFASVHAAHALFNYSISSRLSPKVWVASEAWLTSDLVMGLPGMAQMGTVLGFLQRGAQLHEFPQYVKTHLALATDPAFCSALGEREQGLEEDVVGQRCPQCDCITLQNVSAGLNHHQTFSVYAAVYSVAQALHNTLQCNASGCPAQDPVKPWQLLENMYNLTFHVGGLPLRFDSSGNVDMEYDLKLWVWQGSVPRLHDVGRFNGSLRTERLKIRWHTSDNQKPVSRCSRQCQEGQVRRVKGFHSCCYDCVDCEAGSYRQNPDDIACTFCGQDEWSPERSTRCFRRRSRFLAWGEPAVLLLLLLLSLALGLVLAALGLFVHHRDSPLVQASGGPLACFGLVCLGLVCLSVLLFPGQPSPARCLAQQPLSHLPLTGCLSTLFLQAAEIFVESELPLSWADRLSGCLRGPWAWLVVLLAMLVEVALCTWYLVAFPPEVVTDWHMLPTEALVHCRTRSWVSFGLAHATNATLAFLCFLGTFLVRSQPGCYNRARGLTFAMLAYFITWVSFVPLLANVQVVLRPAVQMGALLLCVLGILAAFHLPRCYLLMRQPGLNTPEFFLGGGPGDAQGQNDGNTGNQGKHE
Description: (§4) At day 0, cells stably expressing the G-protein are plated in a 6-well plate at a density of 800,000-950,000 cells per well and grown overnight in selective growth media. On day 1, the media is changed to an antibiotic-free growth media and the cells are transfected using 2 μg of T1 R2 and 2 μg of T1 R3 cDNA and 10 μl of Lipofectamine 2000 (Invitrogen). The cells are maintained overnight in antibiotic-free growth media. On day 2, the cells are replated into a black, clear-bottom 96 well plate at 20,000 cells per well and grown overnight. The morning of the calcium assay, the media is replaced with low glucose media supplemented with Glutamax and dialyzed FBS to minimize receptor desensitization by sugars and glutamate. The cells are further incubated in this media for 6 hours at 37 degrees C. At the end of this period, the cells are processed for the calcium assay according to conditions described above.
as §2

[8] = test system: sham transfected (control); assay: Fluo-4 calcium assay, sham transfected control cells of Table 7; type: cell-based
Description: as §4, §2

[9] = test system: sham transfected (control); assay: Fluo-4 calcium assay, sham transfected control cells of Table 1; type: cell-based
Description: as §1

[10] = G-protein Gα16gustducin44, ligand 2.5 mM

## C[C@@H]1C[C@@H]([C@H](O)CC2CC(=O)NC(=O)C2)C(=O)[C@@H](C)C1 [cycloheximide]
[1]; G-protein Gα16, ligand 10 μM
  increase in mean fluorescence over baseline following ligand addition: 1705 RFUs
[1]; G-protein Gα16gustducin44, ligand 10 μM
  increase in mean fluorescence over baseline following ligand addition: 3989 RFUs
[2]; HEK293T cells, mouse T2R5, Gα16-gustducin 44, ligand 10 uM
  fluorescence signal (in words): robust flurorescence signal
[2]; HEK293T cells, mouse T2R5, ligand 10 uM
  fluorescence signal with Gα16-gustducin 44, times stronger than wild-type Gα16: 5 times
[2]; mouse T2R5, G-protein Gα16
  increase in mean fluorescence over baseline following ligand addition: 2569 RFUs
[2]; mouse T2R5, G-protein Gα16gustducin44
  increase in mean fluorescence over baseline following ligand addition: 10407 RFUs

## OCc1ccccc1O[C@@H]1O[C@H](CO)[C@@H](O)[C@H](O)[C@H]1O [salicin]
[3]
  fluorescent signal with Gα16-gustducin 44, times stronger than reference chimeric G-protein Gα16-z44: about 3 times
  fluorescent signal with Gα16-gustducin 44, times stronger than wild-type Gα16: about 7 times
  fluorescent signal (in words): robust fluorescent signal

## NC(=S)Nc1ccccc1 [phenylthiocarbamide]
[4]; G-protein + human TAS2R38 (with tetracycline), Gα16gustducin44
  increase in mean fluorescence over baseline following ligand addition: 8989 RFUs
[4]
  fluorescence signal (in words): robust fluorescence signal
[5]
  increase in mean fluorescence over baseline following ligand addition: 3422 RFUs

## O=C1C[C@@H]2OCC=C3CN4CC[C@]56c7ccccc7N1[C@H]5[C@H]2[C@H]3C[C@H]46 [strychnine]
[6]
  increase in mean fluorescence over baseline following ligand addition: 13238 RFUs

## CCCc1cc(=O)[nH]c(=S)[nH]1 [propythiouracil]
[4]
  fluorescence signal (in words): robust response

## CC1=CC(=O)[N-]S(=O)(=O)O1.[K+] [acesulfame K]
[7]
  fluorescence signal with Gα16-gustducin 44, times stronger than wild-type Gα16: 2 times
  fluorescence signal (in words): robust flurorescence signal

## COC(=O)[C@H](Cc1ccccc1)NC(=O)[C@@H](N)CC(=O)O [aspartame] (H-Asp-Phe-OMe)
[7]
  fluorescence signal with Gα16-gustducin 44, times stronger than wild-type Gα16: 2 times
  fluorescence signal (in words): robust flurorescence signal

## OC[C@H]1O[C@H](O[C@]2(CCl)O[C@H](CCl)[C@@H](O)[C@@H]2O)[C@H](O)[C@@H](O)[C@H]1Cl [sucralose]
[8]; G-protein Gα15, ligand 2.5 mM
  increase in mean fluorescence over baseline following ligand addition: 643 RFUs
[8]; [10]
  increase in mean fluorescence over baseline following ligand addition: 1370 RFUs
[7]; G-protein Gα15, ligand 2.5 mM
  increase in mean fluorescence over baseline following ligand addition: 1300 RFUs
[7]; [10]
  increase in mean fluorescence over baseline following ligand addition: 4617 RFUs
[7]
  fluorescence signal with Gα16-gustducin 44, times stronger than wild-type Gα16: 2 times
  fluorescence signal (in words): robust flurorescence signal

## OC[C@H]1O[C@@H](Oc2ccccc2)[C@H](O)[C@@H](O)[C@@H]1O [phenyl-β-D-glucopyranoside]
[3]
  fluorescent signal with Gα16-gustducin 44, times stronger than reference chimeric G-protein Gα16-z44: about 3 times
  fluorescent signal with Gα16-gustducin 44, times stronger than wild-type Gα16: about 7 times
  fluorescent signal (in words): robust fluorescent signal
[3]; hTAS2R16
  receptor activation following ligand stimulation, Gα16gustducin44 cells compared with Gα16 cells (in words): greater degree of receptor activation
[3]; G-protein Gα16
  increase in mean fluorescence over baseline following ligand addition: 3494 RFUs
[3]; G-protein Gα16gustducin44
  increase in mean fluorescence over baseline following ligand addition: 23821 RFUs
[3]; G-protein Gα16z44
  increase in mean fluorescence over baseline following ligand addition: 8296 RFUs
[9]; G-protein Gα16, ligand 5 mM
  increase in mean fluorescence over baseline following ligand addition: 1024 RFUs
[9]; G-protein Gα16gustducin44, ligand 5 mM
  increase in mean fluorescence over baseline following ligand addition: 2162 RFUs
[9]; G-protein Gα16z44, ligand 5 mM
  increase in mean fluorescence over baseline following ligand addition: 1541 RFUs
